Where “and” joins values, the source holds several entries; their conditions need not be identical. Equal values may be shown once. Where a SMILES comes first, the peptide text is derived from it.
Each compound was assayed on reactive oxygen species. Conditions: not given.
Assay type: cell-based, mouse

Compound | ROS
C[C@]12C=CC(=O)C=C1CC[C@@H]1[C@@H]2[C@@H](O)C[C@@]2(C)[C@H]1CC[C@]2(O)C(=O)CO [prednisolone] | 0.248
Cc1cc(NS(=O)(=O)c2ccc(N)cc2)no1 [sulfamethoxazole] | 1.114

Same assay, conditions: Table 4; C2C12 myotubes, 48 h, composite Z-score

Compound | ROS
COc1ccc([C@H]2COc3c(ccc(O)c3OC)C2)c(OC)c1O [duartin(−), reference compound] | 0.900

The compounds below were run on cytochrome c. Conditions: not given.
cytochrome c, sequence (P62897 whole entry): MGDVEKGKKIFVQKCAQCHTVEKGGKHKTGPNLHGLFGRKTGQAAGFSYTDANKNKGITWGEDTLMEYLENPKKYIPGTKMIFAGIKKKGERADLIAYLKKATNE
Assay type: cell-based, mouse

Compound | cyt c | cyt c (composite Z-score vs DMSO) | cyt c (composite Z-score) | cyt c (composite Z-score vs DMSO mock-treated wells)
COc1ccc2c3c1O[C@H]1C[C@@H](O)C=C[C@@]31CCN(C)C2 [galanthamine] | −1.112 |  |  | 
CC1CS(=O)(=O)CCN1/N=C/c1ccc([N+](=O)[O-])o1 (stereo not shown) [nifurtimox] | 0.004 |  |  | 
Cc1cnc(C(=O)NCCc2ccc(S(=O)(=O)NC(=O)NC3CCCCC3)cc2)cn1 [glipizide] |  | 0.287 |  | 
CC1(C)[C@@H](OC(=O)CCC(=O)O)CC[C@]2(C)[C@H]3C(=O)C=C4[C@@H]5C[C@@](C)(C(=O)O)CC[C@]5(C)CC[C@@]4(C)[C@]3(C)CC[C@@H]12 [carbenoxolone] | 0.145 |  |  | 
Cn1cc[nH]c1=S [methimazole] |  | 1.745 | −0.372 | 
CC(=O)Nc1ccccc1 [acetanilide] |  | 0.532 |  | 
CN(C)C(=N)N=C(N)N [metformin] |  | 0.597 |  | 
CNc1ccccc1C(=O)O [N-methylanthranilic acid] | 0.299 |  |  | 
Cc1n[nH]c(=O)[nH]c1=O [6-azathymine] | 0.583 |  |  | 
O=C(NCC(O)CO)c1c(I)c(C(=O)NCC(O)CO)c(I)c(N(CCO)C(=O)CO)c1I (stereo not shown) [ioversol] | 0.129 |  |  | 
CC(=O)CC(c1ccccc1)c1c(O)c2ccccc2oc1=O (stereo not shown) [warfarin] | 0.267 |  |  | 
Nc1c2c(nc3ccccc13)CCCC2 [tacrine] |  | −0.250 |  | 
CN1CCN(CC/C=C2/c3ccccc3Sc3ccc(S(=O)(=O)N(C)C)cc32)CC1 [thiothixene] | 0.307 |  |  | 
O=C1C=CC(=O)c2c(O)cccc21 [juglone] |  | 0.266 |  | 
C[C@]12C[C@H](O)[C@H]3[C@@H](CCC4=CC(=O)CC[C@@]43C)[C@@H]1CC[C@@H]2C(=O)CO [corticosterone] | −0.379 |  |  | 
CN1[C@@H]2CC[C@H]1C[C@@H](OC(=O)C(CO)c1ccccc1)C2 (stereo partly shown) [atropine] | 1.709 |  |  | 
Nc1c2c(nc3ccccc13)CCCC2 [9-amino-1,2,3,4-tetrahydroacridine] |  | 0.967 |  | 
O=c1n(CCCN2CCN(c3cccc(Cl)c3)CC2)nc2ccccn12 [trazodone] |  | 0.028 and 0.038 |  | 
C[n+]1cccc(C(=O)[O-])c1 [trigonelline] |  |  | −0.072 | 
NC1(C(=O)O)CC1 [aminocyclopropanecarboxylic acid] |  | 0.213 |  | 

Compound | cyt c | cyt c (composite Z-score vs DMSO) | cyt c (composite Z-score) | cyt c (composite Z-score vs DMSO mock-treated wells)
CC1CCC(C(C)C)C(O)C1 (stereo not shown) [menthol] | −0.074 |  |  | 
CCC(=O)c1ccc2c(c1)N(CC(C)N(C)C)c1ccccc1S2 (stereo not shown) [propiomazine] | −0.368 |  |  | 
catechin hydrate [reference compound] | 1.085 |  |  | 
COc1ccc([C@@H]2Sc3ccccc3N(CCN(C)C)C(=O)[C@@H]2OC(C)=O)cc1 [diltiazem] | 0.385 | −0.201 |  | 
COc1c(Cl)ccc(Cl)c1C(=O)O [dicamba] | 0.278 |  |  | 
CCCc1cc(=O)[nH]c(=S)[nH]1 [propylthiouracil] | 0.762 and 0.717 |  |  | 
c1ccc(-c2ccc(C(c3ccccc3)n3ccnc3)cc2)cc1 (stereo not shown) [bifonazole] | 0.179 |  |  | 
CN1CCC(OC(c2ccccc2)c2ccccc2)CC1 [diphenylpyraline] | 0.321 and 0.558 |  |  | 
O=c1[nH]cnc2nc[nH]c12 [hypoxanthine] | 0.608 |  |  | 
NCCCCCC(=O)O [aminocaproic acid] |  |  |  | 0.280
NCCCCCC(=O)O [6-aminocaproic acid] |  |  |  | −0.680
COc1ccc(CCC(=O)c2c(O)cc(O[C@@H]3O[C@H](CO)[C@@H](O)[C@H](O)[C@H]3O[C@@H]3O[C@@H](C)[C@H](O)[C@@H](O)[C@H]3O)cc2O)cc1O [neohesperidin dihydrochalcone] | 0.454 |  |  | 
Oc1ccc(O)cc1 [hydroquinone] |  | −4.999 |  | 
C=CCOc1ccccc1OCC(O)CNC(C)C (stereo not shown) [oxprenolol] | 0.047 |  |  | 
CC(=O)N1CCN(c2ccc(OCC3COC(Cn4ccnc4)(c4ccc(Cl)cc4Cl)O3)cc2)CC1 (stereo not shown) [ketoconazole] | 0.406 |  |  | 0.109
CO[C@H]1C[C@H](O[C@@H]2/C(C)=C/C[C@@H]3C[C@@H](C[C@]4(CC[C@H](C)[C@@H](C5CCCCC5)O4)O3)OC(=O)[C@@H]3C=C(C)/C(=N/O)[C@H]4OC/C(=C\C=C\[C@@H]2C)[C@]43O)O[C@@H](C)[C@@H]1O [selamectin] | 0.343 |  |  | 
O=C(OCc1ccccc1)c1ccccc1 [benzyl benzoate] |  | 0.394 |  | 
O=c1[nH]c2ccccc2n1CCCN1CCC(n2c(=O)[nH]c3cc(Cl)ccc32)CC1 [domperidone] | 0.276 |  |  | 
NC[C@@H]1CC[C@@H](N)[C@@H](O[C@H]2[C@H](O)[C@@H](O[C@H]3O[C@H](CO)[C@@H](O)[C@H](N)[C@H]3O)[C@H](N)C[C@@H]2N)O1 [dibekacin] | 0.464 |  |  | 
CN1CCC(=C2c3ccccc3C=Cc3ccccc32)CC1 [cyproheptadine] |  |  | 0.064 | 

Same assay, conditions: composite Z-score vs mock-treated (DMSO) wells; concentration of each compound in μM

Compound | cyt c
C=N[C@@H](C(=O)N[C@@H]1C(=O)N2[C@@H]1SC(C)(C)[C@@H]2C(=O)O)c1ccccc1 [metampicillin] | 0.821
O=C1C=C2C=C[C@@H]3C[C@@]2(O1)[C@H]1CCCCN31 [securinine] | −0.481
C=C[C@H]1CN2CC[C@H]1C[C@H]2[C@H](O)c1ccnc2ccccc12 [cinchonidine] | −0.164
CC(C)N1CCN(c2ccc(OCC3COC(Cn4cncn4)(c4ccc(Cl)cc4Cl)O3)cc2)CC1 (stereo not shown) [terconazole] | 0.552
CCCc1nc2c(C)cc(-c3nc4ccccc4n3C)cc2n1Cc1ccc(-c2ccccc2C(=O)O)cc1 [telmisartan] | −0.044
CO/N=C1\CN(c2nc3c(cc2F)c(=O)c(C(=O)O)cn3C2CC2)CC1CN (stereo not shown) [gemifloxacin] | 0.009
N[C@@H](Cc1ccccc1)C(=O)N[C@@H](Cc1ccc(O)cc1)C(=O)O [phenylalanyltyrosine] (H-Phe-Tyr-OH) | −0.342
COc1ccc(-c2cc(C(F)F)nn2-c2ccc(S(N)(=O)=O)cc2)cc1F [deracoxib] | 0.350
C[C@]12CC[C@H](O)CC1=CC[C@@H]1[C@@H]2CC[C@]2(C)C(=O)CC[C@@H]12 [dehydroepiandrosterone] | −0.634
COc1cc2c3cc1Oc1cc(ccc1O)C[C@@H]1c4c(cc(OC)c(O)c4Oc4ccc(cc4)C[C@@H]3N(C)CC2)CC[N+]1(C)C [tubocurarine] | 1.117
Cc1cc(O)c(C=O)c2c1C(=O)Oc1c(COC(=O)/C=C/C(=O)O)c(O)c(C(=O)O)c(C)c1O2 [fumarprotocetraric acid] | 0.505
CC(=O)N[C@@H](CC(=O)O)C(=O)N[C@@H](CCC(=O)O)C(=O)O [N-acetylaspartylglutamic acid] (Ac-Asp-Glu-OH) | 0.480
N=C(N)NOCC[C@H](N)C(=O)O [canavanine] | −0.321
C[C@H]1CCCC(=O)CCC/C=C/c2cc(O)cc(O)c2C(=O)O1 [zearalenone] | −0.185
COc1c(O)cc2c(c1O)[C@@H]1O[C@H](CO)[C@@H](O)[C@H](O)[C@H]1OC2=O [bergenin] | 0.831
COc1ccc(C(CN(C)C)C2(O)CCCCC2)cc1 (stereo not shown) [venlafaxine] | 0.627
CCOC(=O)C1=C(COCCN)NC(C)=C(C(=O)OC)C1c1ccccc1Cl (stereo not shown) [amlodipine] | 0.902
CC(CCc1ccc(O)cc1)NCCc1ccc(O)c(O)c1 (stereo not shown) [dobutamine] | −0.289
CC[C@H]1CN2CC[C@H]1C[C@H]2[C@H](O)c1ccnc2ccc(OC)cc12 [hydroquinine] | 0.004
CN(CCCCCCCCCCN(C)C(=O)Oc1cccc([N+](C)(C)C)c1)C(=O)Oc1cccc([N+](C)(C)C)c1 [demecarium] | −0.211
O=C(Cc1cccs1)N[C@@H]1C(=O)N2C(C(=O)[O-])=C(C[n+]3ccccc3)CS[C@H]12 [cephaloridine] | −0.278
C[C@H]1[C@H](C)CC[C@]2(C(=O)O)CC[C@]3(C)C(=CC[C@@H]4[C@@]5(C)C[C@@H](O)[C@H](O)[C@@](C)(CO)[C@@H]5[C@H](O)C[C@]43C)[C@H]12 [madecassic acid] | 0.241
CCCCCCCC/C=C/CCCCCCCCOP(=O)([O-])OCC[N+](C)(C)C [elaidylphosphocholine] | −0.840
Cc1cccc(C)c1NC(=O)C1CCCCN1C (stereo not shown) [mepivacaine] | −0.084
N[C@@H](Cc1c[nH]cn1)C(=O)Nc1ccc2ccccc2c1 [N-histidyl-2-aminonaphthalene] | 0.214
CC(C)(O/N=C(\C(=O)N[C@@H]1C(=O)N2C(C(=O)[O-])=C(C[n+]3ccccc3)CS[C@H]12)c1csc(N)n1)C(=O)O [ceftazidime] | 0.740
C[C@@H]1O[C@@H](OC[C@H]2O[C@@H](Oc3c(-c4ccc(O)c(O)c4)oc4cc(O)cc(O)c4c3=O)[C@H](O)[C@@H](O)[C@@H]2O)[C@H](O)[C@H](O)[C@H]1O [rutoside] | −0.012

Same assay, conditions: normalized score (composite Z-score vs DMSO mock-treated wells); compound concentration (μM)

Compound | cyt c
Clc1ccc(C(Cn2ccnc2)OCc2c(Cl)cccc2Cl)c(Cl)c1 (stereo not shown) [isoconazole] | −0.572
CCN[C@@H]1C[C@H](N)[C@@H](O[C@H]2OC(CN)=CC[C@H]2N)[C@H](O)[C@H]1O[C@H]1OC[C@](C)(O)[C@H](NC)[C@H]1O [netilmicin] | 0.156
OCCOCCN1CCN(C(c2ccccc2)c2ccc(Cl)cc2)CC1 (stereo not shown) [hydroxyzine] | 0.258
CC(C(=O)O)c1ccc(C(=O)c2ccccc2)s1 (stereo not shown) [tiaprofenic acid] | 0.644
CC(C)NCC(O)COc1ccc(COCCOC(C)C)cc1 (stereo not shown) [bisoprolol] | 0.874
COc1cc(N)c(Cl)cc1C(=O)NC1CCN(CCCOc2ccc(F)cc2)CC1OC (stereo not shown) [cisapride] | −0.495

From patent publication US20090143279A1 (priority 2007, published 2009)
